From patent US20050197356A1, “Non-immunosuppressive immunophilin ligands as neuroprotective and/or neuroregenerative agents” (Wyeth, priority 2004, published 2005)

Key:
Type in all cases: cell-based, rat
[1] = system: cultured dopaminergic neurons; test: High-affinity 3H-dopamine uptake after MPP+ induced toxicity in mesencephalic dopaminergic neuron cultures
Protocol: Mesencephalic dopaminergic neuron cultures were prepared as previously described in Pong et al., J Neurochem. 69: 986-994 (1997). Embryonic day 15 (E15) rat fetuses were collected and dissected in ice-cold phosphate-buffered saline (PBS). The ventral piece of tissue compromising the mesencephalic dopaminergic region was dissected out. Dissected pieces of tissue were pooled together and transferred to an enzymatic dissociation medium containing 20 IU/ml papain in Earle's balanced salt solution (Worthington Biochemical, Freehold, N.J., U.S.A.) and incubated for 60 minutes at 37° C. After enzymatic dissociation, the papain solution was aspirated and the tissue mechanically triturated with a fire-polished glass Pasteur pipette in complete medium [equal volumes of minimum essential medium (MEM) and F-12 nutrient mixture (Gibco BRL) supplemented with 0.1 mg/ml apotransferrin and 2.5 μg/ml insulin] containing 2,000 IU/ml DNase and 10 mg/ml ovomucoid protease inhibitor.
For dopamine uptake experiments, single-cell suspensions in complete media were seeded on poly-L-ornithine and laminin coated 24-well plates. The cultures were maintained for seven days prior to experimentation. Cultures were pretreated with various concentrations of the compound of formula (I) (washed with PBS and diluted with media to concentrations of 1 nM to 1000 nM) for 24 hours, then exposed to 10 μM the neurotoxin 1-methyl-4-phenylpyridinium (MPP^+) for 1 hour to assess the neuroprotective effect of the compound of formula (I) in cell culture. Following the 1 hour incubation, media was exchanged three times and fresh compound was added for an additional 48 hours.
More particularly, after 48 hours growth of mesencephalic dopaminergic neuron cultures following MPP^+ exposure, high-affinity ^3H-dopamine uptake was performed using a modified method described by Prochiantz et al., Nature 293: 570-572 (1981). Cultures were washed with pre-warmed phosphate-buffered saline (PBS) containing 5.6 mM glucose and 1 mM ascorbic acid. Cultures were then incubated for 15 minutes at 37° C. with 50 nM ^3H-dopamine (31 Ci/mmol, Du Pont-NEN, Wilmington, Del., U.S.A.). The cultures were washed twice with buffer and lysed with 0.5 N NaOH. The lysate was transferred to a scintillation vial containing Ultima Gold scintillation cocktail and radioactivity was determined with a liquid scintillation counter. Alternatively, culture lysates can be washed twice with buffer, incubated for 2 hours at room temperature with Optiphase Supermix scintillation cocktail (Wallac Scintillation Products, Gaithersburg, Md., USA), and radioactivity measured with a liquid scintillation counter.
MPP^+-induced neurotoxicity in a ^3H-dopamine uptake cell assay was measured. Neuroprotective effects in cell culture were measured by addition of the compound (1 nM to 1000 nM) to the culture in the presence of MPP.

[2] = system: cultured dorsal root ganglia; test: Neurite outgrowth (ENO algorithm, Cellomics ArrayScan) in cultured dorsal root ganglia; settings: 72 hours
Protocol: Dissociated dorsal root ganglia cultures were prepared as previously described [A. Wood et al., “Stimulation of neurite outgrowth by immunophilin ligands: quantitative analysis by Cellomics Array scan” Society for Neuroscience (2004), abstract 104.3] Briefly, postnatal day 3-5 rat pups were euthanized. The spinal columns were removed and individual dorsal root ganglia (DRG) were dissected out. Dissected DRG were pooled together and transferred to an enzymatic dissociation medium containing papain. After 60 minutes, the tissue was mechanically triturated with a fire-polished glass Pasteur pipette. Single-cell suspensions in complete media were seeded on poly-L-ornithine and laminin coated 96-well plates. After 24 hours, cultures were treated with various concentrations of the compound of formula I for 72 hours. The cultures were then fixed and stained with an anti-tubulin primary antibody (TUJ-1) and a fluorescent-tagged secondary antibody. Neurite outgrowth was determined by using the Enhanced Neurite Outgrowth (ENO) algorithm with the Cellomics ArrayScan and expressed as total neurite length per cell.

[3] = system: cultured cortical neurons; test: Neurofilament content in cultured cortical neurons (neurofilament antibody, colorimetric); settings: 72 hours
Protocol: (§1) Dissociated cortical neuron cultures were prepared as previously described [Pong et al., Exp Neurol. 2001 September; 171(1):84-97 (2001)]. Briefly, embryonic day 15 rat fetuses were collected and dissected in ice-cold PBS. Dissected cortices were pooled together and transferred to an enzymatic dissociation medium containing papain. After 30 min, the tissue was mechanically triturated with a fire-polished glass Pasteur pipette. Single-cell suspensions in complete media were seeded on poly-L-ornithine and laminin coated 96-well plates. 24 hours later, cultures were treated with various concentrations of compound of formula (I) for 72 hours. The cultures were then fixed and stained with a neurofilament primary antibody and a peroxidase-tagged secondary antibody. A peroxidase substrate (K-Blue Max) was added and the colorimetric change was measure on a colorimetric plate reader.
as §1, with “(Pong” for “[Pong”, “2001).” for “Exp Neurol. 2001 September; 171(1):84-97 (2001)].”, “ploy-L-ornithine” for “poly-L-ornithine”, “compound” for “compound of formula (I)”, “calorimetric” for “colorimetric”

[4] = system: cultured cortical neurons; test: Neurite outgrowth (ENO algorithm, Cellomics ArrayScan) in cultured cortical neurons; settings: 72 hours
Protocol: Dissociated cortical neuron cultures were prepared as previously described (Pong et al., cited above, 2001). Briefly, embryonic day 15 rat fetuses were collected and dissected in ice-cold PBS. Dissected cortices were pooled together and transferred to an enzymatic dissociation medium containing papain. After 30 minutes, the tissue was mechanically triturated with a fire-polished glass Pasteur pipette. Single-cell suspensions in complete media were seeded on poly-L-ornithine and laminin coated 96-well plates. After 24 hours, cultures were treated with various concentrations of the compound of formula I for 72 hours. The cultures were then fixed and stained with an anti-tubulin primary antibody (TUJ-1) and a fluorescent-tagged secondary antibody. Neurite outgrowth was determined by using the Enhanced Neurite Outgrowth (ENO) algorithm with the Cellomics ArrayScan and expressed as total neurite length per cell.

Molecule: C[n+]1ccc(-c2ccccc2)cc1 [MPP^+, 1-methyl-4-phenylpyridinium, reference compound]
- 3H-DOPAMINE UPTAKE (% UNTREATED CONTROL) ([1]; 10 uM MPP+ alone, 1 hour exposure, uptake 48 hours later): 40%

Molecule: CC/C1=C\CC(/C(C)=C/C(C)C(C)O)OC(=O)C2CCCCN2C(=O)C(=O)C2(O)OC(CCC2C)CC(O)C(C)C(O)CC(O)CC(O)/C(C)=C/C(C)CC(C)C1O (centres unmarked) [meridamycin]
- Total Neurite Length (% Above Control) ([2]; 10 nM): 4%
- Total Neurite Length (% Above Control) ([2]; 100 nM): 9%
- Total Neurite Length (% Above Control) ([2]; 1 μM): 14%
- Total Neurite Length (% Above Control) ([2]; 10 μM): 24%
- 3H-DOPAMINE UPTAKE (% UNTREATED CONTROL) ([1]; 1 nM meridamycin, 24 h pretreatment, 10 uM MPP+ 1 h, compound further 48 h): 47%
- 3H-DOPAMINE UPTAKE (% UNTREATED CONTROL) ([1]; 10 nM meridamycin, 24 h pretreatment, 10 uM MPP+ 1 h, compound further 48 h): 51%
- 3H-DOPAMINE UPTAKE (% UNTREATED CONTROL) ([1]; 100 nM meridamycin, 24 h pretreatment, 10 uM MPP+ 1 h, compound further 48 h): 51%
- 3H-DOPAMINE UPTAKE (% UNTREATED CONTROL) ([1]; 1000 Nm meridamycin, 24 h pretreatment, 10 uM MPP+ 1 h, compound further 48 h): 64%
- EC50 ([1]; Rattus norvegicus, Neuron, relative to maximum protection (84% uptake) afforded by 10 ng/mL GDNF, read-out: EC50 of neuroprotection against MPP+-induced neurotoxicity): 555 nM
- NEUROFILAMENT CONTENT (FOLD-INCREASE ABOVE UNTREATED CONTROL) ([3]; 10 nM meridamycin): 1.71 fold
- NEUROFILAMENT CONTENT (FOLD-INCREASE ABOVE UNTREATED CONTROL) ([3]; 100 nM meridamycin): 2.24 fold
- NEUROFILAMENT CONTENT (FOLD-INCREASE ABOVE UNTREATED CONTROL) ([3]; 1 μM meridamycin): 2.32 fold
- NEUROFILAMENT CONTENT (FOLD-INCREASE ABOVE UNTREATED CONTROL) ([3]; 10 μM meridamycin): 2.56 fold
- EC50 ([3]; Rattus norvegicus, Cortical neurone, cultured cortical neurons, read-out: EC50 of increased neuronal survival (neurofilament content)): 12 nM
- Total Neurite Length (% Above Control) ([4]; 10 nM): 19%
- Total Neurite Length (% Above Control) ([4]; 100 nM): 40%
- Total Neurite Length (% Above Control) ([4]; 1 μM): 113%
- Total Neurite Length (% Above Control) ([4]; 10 μM): 152%

B1: GDNF: GDNF, 10 ng/mL, positive control that afforded maximum protection (protein, UniProt P39905 78-211, looked up)
Glial cell line-derived …: SPDKQMAVLPRRERNRQAAAANPENSRGKGRRGQRGKNRGCVLTAIHLNVTDLGLGYETKEELIFRYCSGSCDAAETTYDKILKNLSRNRRLVSDKVGQACCRPIAFDDDLSFLDDNLVYHILRKHSAKRCGCI
- maximum protection (3H-dopamine uptake) ([1]; 10 ng/mL GDNF, MPP+-induced neurotoxicity): 84%
